Patent US8796296B2, “Aminopyrimidine derivatives as LRRK2 modulators” (Genentech, Inc., priority 2011, dated 2014)

Target: LRRK2 (Homo sapiens (Human), UniProt Q5S007, G2019S)
Assay: In Vitro LRRK2 LabChip Assay (LRRK2 Ki)
Assay type: biochemical
Description: In Vitro LRRK2 LabChip Assay
This assay was used to determine a compound's potency in inhibiting activity of LRRK2 by determining, Kiapp, IC50, or percent inhibition values. In a polypropylene plate, LRRK2, fluorescently-labeled peptide substrate, ATP and test compound were incubated together. Using a LabChip 3000 (Caliper Life Sciences), after the reaction the substrate was separated by capillary electrophoresis into two populations: phosphorylated and unphosphorylated. The relative amounts of each were quantitated by fluorescence intensity. LRRK2 Ki was determined according to the equation: Y=V0*(1−((x+Ki*(1+S/Km)+Et)/(2*Et)−(((x+Ki*(1+S/Km)+Et)^2−(4*Et*x))^0.5)/(2*Et))). Ki values in Table 4 and elsewhere herein are shown in μM.
Assay conditions and materials used were as follows:
LRRK2 Wild type in 5 mM MgCl2: 15 nM (Invitrogen lot #500607F)
Kinase reaction time: 2 hours
Wild type in 5 mM MgCl2: 80 μM
Kinase: LRRK2 G2019S (Invitrogen cat #PV4882). • LRRK2 Wild type (Invitrogen cat #PV4874).
Substrate: 5FAM-GAGRLGRDKYKTLRQIRQ-CONH2
Complete Reaction Buffer: H2O/25 mM Tris, pH 8.0/5 mM MgCl2/2 mM DTT/0.01% Triton X-100.
For serial dilutions, 34.6 μl DMSO was added to columns 3-24. For the assay controls, 37.5 μl DMSO was added to columns 1 and 2 of rows A and P. a,d and 50 μl 25 μM G-028831 (Staurosporine) was added to columns 1 and 2, row B. For the samples: to start at 100 μM, 37.5 μl DMSO was to columns 1 and 2, then 12.5 μl 10 mM compound; to start at 10 μM, 78 μl DMSO was added to columns 1 & 2, then 2 μl 10 mM compound; and to start at 1 μM, 25 μM compound (2 μl 10 mM cmpd+798 μl DMSO) was added to empty columns 1 and 2. A Precision instrument was used to perform 1:3.16 serial dilutions (“PLK_BM_serial_halflog”).
ATP was diluted to 282.1 μM in Complete Kinase Buffer (final concentration was 130 μM).
In Complete Reaction Buffer, substrate was diluted to 4 μM. Equal volumes of Complete Reaction Buffer and 4 μM substrate were combined to obtain the blank. Equal volumes of Complete Reaction Buffer and 4 μM substrate were combined and to the combined solution was added 2× final LRRK2 concentration.
To a 50 μl polypropylene plate, 5 μl/well buffer/substrate was added by hand to Blank wells. A Biomek FX was used to start the kinase reaction (“PLK SAR 23 ATP”). The following were added to the appropriate wells:
The plate was incubated for 2 hours in the dark. Biomek FX was used to stop the kinase reaction (“PLK Stop”), and 10 μl/well Stop solution was added to the Assay Plate.
Results were read on the LabChip 3000.
The LabChip 3000 was run using the job “LRRK2 IC50” with the following job settings: […]

Chain of LRRK2 (Q5S007 whole entry G2019S): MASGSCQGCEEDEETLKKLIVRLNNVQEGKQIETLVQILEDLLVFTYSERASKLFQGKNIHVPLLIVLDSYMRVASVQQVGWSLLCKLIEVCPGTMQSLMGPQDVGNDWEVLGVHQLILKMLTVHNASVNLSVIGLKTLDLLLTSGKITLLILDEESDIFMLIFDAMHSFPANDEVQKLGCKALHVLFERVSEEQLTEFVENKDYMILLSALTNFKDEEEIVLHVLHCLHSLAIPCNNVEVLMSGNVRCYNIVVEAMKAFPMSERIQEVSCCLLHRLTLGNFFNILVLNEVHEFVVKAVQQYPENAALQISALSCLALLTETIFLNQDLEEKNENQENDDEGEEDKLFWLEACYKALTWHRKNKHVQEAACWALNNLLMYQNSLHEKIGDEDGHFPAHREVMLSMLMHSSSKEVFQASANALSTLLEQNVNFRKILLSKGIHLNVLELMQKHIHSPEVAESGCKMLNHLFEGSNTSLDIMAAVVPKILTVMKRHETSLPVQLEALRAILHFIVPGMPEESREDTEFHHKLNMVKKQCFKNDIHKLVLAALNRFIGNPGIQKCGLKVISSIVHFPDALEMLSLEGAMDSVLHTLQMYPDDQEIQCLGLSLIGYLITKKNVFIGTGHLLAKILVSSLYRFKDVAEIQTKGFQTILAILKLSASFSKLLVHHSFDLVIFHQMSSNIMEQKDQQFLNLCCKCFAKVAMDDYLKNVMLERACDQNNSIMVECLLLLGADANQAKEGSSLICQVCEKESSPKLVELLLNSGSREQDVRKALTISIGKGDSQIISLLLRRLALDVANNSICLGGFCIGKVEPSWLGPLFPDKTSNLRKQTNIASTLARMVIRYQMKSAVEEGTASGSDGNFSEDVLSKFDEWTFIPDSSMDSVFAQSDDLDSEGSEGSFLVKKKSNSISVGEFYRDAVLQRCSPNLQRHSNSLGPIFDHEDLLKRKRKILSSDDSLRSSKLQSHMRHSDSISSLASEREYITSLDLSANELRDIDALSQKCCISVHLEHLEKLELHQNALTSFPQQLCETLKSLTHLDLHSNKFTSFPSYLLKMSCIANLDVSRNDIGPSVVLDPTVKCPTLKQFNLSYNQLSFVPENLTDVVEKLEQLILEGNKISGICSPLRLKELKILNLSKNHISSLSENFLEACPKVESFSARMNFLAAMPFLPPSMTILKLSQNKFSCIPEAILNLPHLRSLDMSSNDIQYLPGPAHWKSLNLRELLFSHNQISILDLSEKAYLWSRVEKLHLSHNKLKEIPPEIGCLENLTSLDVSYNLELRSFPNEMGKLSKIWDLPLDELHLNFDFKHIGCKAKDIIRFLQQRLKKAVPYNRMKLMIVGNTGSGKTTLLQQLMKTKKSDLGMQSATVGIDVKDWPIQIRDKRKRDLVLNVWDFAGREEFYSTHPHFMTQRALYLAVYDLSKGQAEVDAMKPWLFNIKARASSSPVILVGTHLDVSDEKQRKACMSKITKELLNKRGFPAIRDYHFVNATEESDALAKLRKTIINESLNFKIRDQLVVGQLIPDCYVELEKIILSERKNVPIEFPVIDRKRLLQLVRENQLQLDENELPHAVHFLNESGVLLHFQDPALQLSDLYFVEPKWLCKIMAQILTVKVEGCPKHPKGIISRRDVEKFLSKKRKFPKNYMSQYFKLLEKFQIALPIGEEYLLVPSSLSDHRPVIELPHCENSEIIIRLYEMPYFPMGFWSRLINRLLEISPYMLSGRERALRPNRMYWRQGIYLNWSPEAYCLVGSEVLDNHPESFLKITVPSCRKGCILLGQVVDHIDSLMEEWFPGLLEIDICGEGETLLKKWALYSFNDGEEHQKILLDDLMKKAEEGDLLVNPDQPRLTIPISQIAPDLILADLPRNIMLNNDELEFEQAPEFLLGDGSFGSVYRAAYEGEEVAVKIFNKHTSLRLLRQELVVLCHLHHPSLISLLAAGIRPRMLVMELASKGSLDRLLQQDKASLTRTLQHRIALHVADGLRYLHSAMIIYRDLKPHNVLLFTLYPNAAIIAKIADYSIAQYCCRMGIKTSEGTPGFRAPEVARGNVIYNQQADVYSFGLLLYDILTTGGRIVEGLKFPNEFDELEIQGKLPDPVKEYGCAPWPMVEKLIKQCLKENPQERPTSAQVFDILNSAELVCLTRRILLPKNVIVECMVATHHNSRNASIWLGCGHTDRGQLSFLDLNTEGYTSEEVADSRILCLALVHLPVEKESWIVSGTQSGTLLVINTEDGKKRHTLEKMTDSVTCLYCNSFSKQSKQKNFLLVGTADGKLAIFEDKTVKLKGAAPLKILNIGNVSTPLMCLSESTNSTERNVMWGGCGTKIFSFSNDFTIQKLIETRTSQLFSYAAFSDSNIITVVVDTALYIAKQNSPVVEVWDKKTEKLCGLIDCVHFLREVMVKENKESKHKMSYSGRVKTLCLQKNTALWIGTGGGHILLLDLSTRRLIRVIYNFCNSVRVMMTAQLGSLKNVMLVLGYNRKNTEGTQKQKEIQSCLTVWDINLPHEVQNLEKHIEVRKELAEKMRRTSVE

| SMILES | Ki [nM] |
| --- | --- |
| CNc1nc(Nc2cc3c(cc2Cl)C(=O)N(C)CCO3)ncc1C(F)(F)F [Compound 1, 7-chloro-4-methyl-8-(4-(methylamino)-5-(trifluoromethyl)pyrimidin-2-ylamino)-3,4-dihydrobenzo[f][1,4]oxazepin-5(2H)-one] | 3 |
| CNc1nc(Nc2cc3c(cc2OC)N(C)C(=O)C(C)(C)O3)ncc1Cl [Compound 2, 7-((5-chloro-4-(methylamino)pyrimidin-2-yl)amino)-6-methoxy-2,2,4-trimethyl-2H-benzo[b][1,4]oxazin-3(4H)-one] | 1 |
| CNc1nc(Nc2cc3oc(C(=O)N(C)C)cc3cc2OC)ncc1C(F)(F)F [Compound 3, 5-methoxy-N,N-dimethyl-6-((4-(methylamino)-5-(trifluoromethyl)pyrimidin-2-yl)amino)benzofuran-2-carboxamide] | 1 |
| CNc1nc(Nc2cc3c(cc2Cl)n(C)c(=O)n3C)ncc1C(F)(F)F [Compound 4, 5-chloro-1,3-dimethyl-6-((4-(methylamino)-5-(trifluoromethyl)pyrimidin-2-yl)amino)-1H-benzo[d]imidazol-2(3H)-one] | 2 |
| CNc1nc(Nc2cc3oc(=O)n(C)c3cc2Cl)ncc1C(F)(F)F [Compound 5, 5-chloro-3-methyl-6-((4-(methylamino)-5-(trifluoromethyl)pyrimidin-2-yl)amino)benzo[d]oxazol-2(3H)-one] | 4 |
| CNc1nc(Nc2cc3nc(C)oc3cc2Cl)ncc1C(F)(F)F [Compound 6, N^2-(6-chloro-2-methylbenzo[d]oxazol-5-yl)-N^4-methyl-5-(trifluoromethyl)pyrimidine-2,4-diamine] | 5 |
| CNc1nc(Nc2cc3c(cc2Cl)C(=O)N(C)C3)ncc1Cl [Compound 8, 6-chloro-5-(5-chloro-4-(methylamino)pyrimidin-2-ylamino)-2-methylisoindolin-1-one] | 3 |
| CNc1nc(Nc2cc3c(cc2Cl)C(=O)N(C)C3)ncc1C(F)(F)F [Compound 9, 6-chloro-2-methyl-5-(4-(methylamino)-5-(trifluoromethyl)pyrimidin-2-ylamino)isoindolin-1-one] | 1 |
| CNc1nc(Nc2ccc3c(c2OC)CN(C2CC2)C3=O)ncc1C(F)(F)F [Compound 10, 2-cyclopropyl-4-methoxy-5-(4-(methylamino)-5-(trifluoromethyl)pyrimidin-2-ylamino)isoindolin-1-one] | 7 |
| CNc1nc(Nc2ccc3c(c2OC)CN(C)C3=O)ncc1C(F)(F)F [Compound 11, 4-methoxy-2-methyl-5-(4-(methylamino)-5-(trifluoromethyl)pyrimidin-2-ylamino)isoindolin-1-one] | 1 |
| CNc1nc(Nc2cc3cnn(C)c(=O)c3cc2OC)ncc1C(F)(F)F [Compound 17, 7-methoxy-2-methyl-6-(4-(methylamino)-5-(trifluoromethyl)pyrimidin-2-ylamino)phthalazin-1(2H)-one] | 27 |
| CCN1Cc2c(ccc(Nc3ncc(C(F)(F)F)c(NC)n3)c2OC)C1=O [Compound 18, 2-ethyl-4-methoxy-5-(4-(methylamino)-5-(trifluoromethyl)pyrimidin-2-ylamino)isoindolin-1-one] | 9 |
| CNc1nc(Nc2ccc3c(c2OC)CN(C(C)(C)O)C3=O)ncc1C(F)(F)F [Compound 19, 2-(2-hydroxypropan-2-yl)-4-methoxy-5-(4-(methylamino)-5-(trifluoromethyl)pyrimidin-2-ylamino)isoindolin-1-one] | 4 |
| CCNc1nc(Nc2cc3c(cc2OC)C(=O)N(CC(C)(C)O)C3)ncc1C(F)(F)F [Compound 24, 5-(4-(ethylamino)-5-(trifluoromethyl)pyrimidin-2-ylamino)-2-(2-hydroxy-2-methylpropyl)-6-methoxyisoindolin-1-one] | 3 |
| CNc1nc(Nc2cc3c(cc2OC)C(=O)N(C2COC2)C3)ncc1C(F)(F)F [Compound 25, 6-methoxy-5-(4-(methylamino)-5-(trifluoromethyl)pyrimidin-2-ylamino)-2-(oxetan-3-yl)isoindolin-1-one] | 6 |
| CCNc1nc(Nc2cc3c(cc2OC)C(=O)N(C2COC2)C3)ncc1C(F)(F)F [Compound 26, 5-(4-(ethylamino)-5-(trifluoromethyl)pyrimidin-2-ylamino)-6-methoxy-2-(oxetan-3-yl)isoindolin-1-one] | 2 |
| CNc1nc(Nc2cc3c(cc2Cl)c(C(=O)N(C)C)cn3C)ncc1C(F)(F)F [Compound 27, 5-chloro-N,N,1-trimethyl-6-(4-(methylamino)-5-(trifluoromethyl)pyrimidin-2-ylamino)-1H-indole-3-carboxamide] | 6 |
| CNc1nc(Nc2cc3c(cc2OC)c(C(=O)N2CCOCC2)cn3C)ncc1C(F)(F)F [Compound 30, (5-methoxy-1-methyl-6-(4-(methylamino)-5-(trifluoromethyl)pyrimidin-2-ylamino)-1H-indol-3-yl)(morpholino)methanone] | 1 |
| CNc1nc(Nc2cc3c(cc2Cl)c(C(=O)N2CCN(C)CC2)cn3C)ncc1C(F)(F)F [Compound 31, (5-chloro-1-methyl-6-(4-(methylamino)-5-(trifluoromethyl)pyrimidin-2-ylamino)-1H-indol-3-yl)(4-methylpiperazin-1-yl)methanone] | 1 |

Now from value to compound:

| Ki [nM] | SMILES |
| --- | --- |
| 5 | CNc1nc(Nc2cc3c(cc2OC)CN(C)C3=O)ncc1C(F)(F)F [Compound 7, 5-methoxy-2-methyl-6-(4-(methylamino)-5-(trifluoromethyl)pyrimidin-2-ylamino)isoindolin-1-one] |
| 8 | CNc1nc(Nc2cc3c(cc2OC)N(C)C(=O)C(C)(C)O3)ncc1C(F)(F)F [Compound 12, 6-methoxy-2,2,4-trimethyl-7-(4-(methylamino)-5-(trifluoromethyl)pyrimidin-2-ylamino)-2H-benzo[b][1,4]oxazin-3(4H)-one] |
| 4 | CNc1nc(Nc2cc3oc(=O)[nH]c3cc2Cl)ncc1Cl [Compound 13, 5-chloro-6-(5-chloro-4-(methylamino)pyrimidin-2-ylamino)benzo[d]oxazol-2(3H)-one] |
| 7 | CNc1nc(Nc2cc3c(cc2OC)C(=O)N(C)CC3)ncc1C(F)(F)F [Compound 15, 7-methoxy-2-methyl-6-(4-(methylamino)-5-(trifluoromethyl)pyrimidin-2-ylamino)-3,4-dihydroisoquinolin-1(2H)-one] |
| 44 | CNc1nc(Nc2cc3c(cc2OC)C(=O)N(C)CC3)ncc1C#N [Compound 16, 2-(7-methoxy-2-methyl-1-oxo-1,2,3,4-tetrahydroisoquinolin-6-ylamino)-4-(methylamino)pyrimidine-5-carbonitrile] |
| 9 | CNc1nc(Nc2ccc3c(c2OC)CN(C2COC2)C3=O)ncc1C(F)(F)F [Compound 20, 4-methoxy-5-(4-(methylamino)-5-(trifluoromethyl)pyrimidin-2-ylamino)-2-(oxetan-3-yl)isoindolin-1-one] |
| 5 | CNc1nc(Nc2cc3c(cc2OC)C(=O)N(C)C3)ncc1C(F)(F)F [Compound 21, 6-methoxy-2-methyl-5-(4-(methylamino)-5-(trifluoromethyl)pyrimidin-2-ylamino)isoindolin-1-one] |
| 3 | CNc1nc(Nc2cc3c(cc2Cl)c(C(=O)N2CCOCC2)cn3C)ncc1C(F)(F)F [Compound 22, (5-chloro-1-methyl-6-(4-(methylamino)-5-(trifluoromethyl)pyrimidin-2-ylamino)-1H-indol-3-yl)(morpholino)methanone] |
| 10 | CNc1nc(Nc2cc3c(cc2OC)C(=O)N(CC(C)(C)O)C3)ncc1C(F)(F)F [Compound 23, 2-(2-hydroxy-2-methylpropyl)-6-methoxy-5-(4-(methylamino)-5-(trifluoromethyl)pyrimidin-2-ylamino)isoindolin-1-one] |
| 4 | CNc1nc(Nc2cc3c(cc2Cl)c(C(=O)N2CCNCC2)cn3C)ncc1C(F)(F)F [Compound 28, (5-chloro-1-methyl-6-(4-(methylamino)-5-(trifluoromethyl)pyrimidin-2-ylamino)-1H-indol-3-yl)(piperazin-1-yl)methanone] |
| 1 | CCNc1nc(Nc2cc3c(cc2Cl)c(C(=O)N2CCOCC2)cn3C)ncc1C(F)(F)F [Compound 29] |
